The data set deals with cell line U937. The data set is described as follows: Optimization of glycan oxidation conditions, cell viability by trypan blue staining. Type of data set: cell-based. On the procedure: Method 2: Conditions for biocompatible oxime ligation and ^89Zr-labeling of monocytes. Reactive aldehydes were generated on the cell surface of the monocytic cell line U937 through sialic acid oxidation with NaIO4. Oxidation conditions were optimized by varying NaIO4 concentration (0.1-10 mM), pH (4.6-7.4), temperature (4 or 37° C.), and incubation time (15 min to 2 h). Subsequently, cells were incubated with AOD (100-500 μM) at room temperature for up to 1 h in the presence of aniline, and cells were washed and resuspended in PBS. Next, AOD-conjugated (5-7×10^6) cells were radiolabeled with ^89Zr (37-74 MBq) at room temperature for 1h, then washed thrice to eliminate unlabeled ^89Zr, and the radiochemical yield was measured by TLC (FIG. 9A-9D). Cell viability was assessed at each step via trypan blue staining (FIG. 8).

Regarding `[Na+].[O-][I+3]([O-])([O-])[O-]` [sodium periodate], the “viability of U937 cells after oxidation” value (1 mM, up to 1 hour) is “over 90%”. Further, where the note is “tested temperature and reaction times”, the “effect of glycan oxidation on cell viability, in words” value is “minimal effect on cell viability”.

The values above are taken from patent US20250082797A1, “Methods for In Vivo Tracking of Cells” (Wisconsin Alumni Research Foundation, priority 2023, published 2025).
